Source: PMC11190268, “Enhancing structural diversity through chemical engineering of Ambrosia tenuifolia extract for novel anti-glioblastoma compounds” (Scientific Reports, 2024)
Read-outs that look alike come from different tables or passages of the source.

How the values were obtained:
Format in all cases: cell-based, human
HEK 293 cells = experiment: MTT cell viability assay in non-tumor HEK 293 cells; conditions: for selectivity index: HEK 293 versus T98G
Description: (§1) T98G cells were isolated from the brain of a glioblastoma multiforme patient (ATCC, cat. No. CRl-1690, RRUD: CVCL-0556, Manassas, VA, USA). HEK 293 cells are derived from human embryonic kidney cells (ATCC Cat# CRL-1573, RRID: CVCL_0045). Both cell lines were grown in Dulbecco’s modified Eagle’s medium (DMEM, Invitrogen) supplemented with 10% fetal serum bovine serum (FBS) at 37 °C according to reference.
(§2) 3 × 10^3 cells were seeded in a 96-well plate and were allowed to attach overnight at 37 °C. T98G cells were treated in duplicate or triplicate with different concentrations of the crude/chemically modified extract or pure compounds. The stock solutions were dissolved in DMSO at the final concentration of 160 mg/ml and 5 or 80 mM for the crude/chemically modified extracts and pure compounds, respectively. After 24 h, 100 μL of DMEM supplemented with 10% of FBS and 10% of 3-(4,5-dimethylthiazol-2-yl)-2,5-diphenyltetrazolium bromide (MTT) reagent (5 mg/mL; Sigma) were added to each well, and plates were further incubated for 2 h at 37 °C as described in references,[36]. Then, 100 μL of DMSO:isopropanol (1:1, v/v) were added to each well followed by incubation for a few minutes at room temperature protected from light. Absorbance was analyzed at 570 nm with a reference at 650 nm in an Epoch Microplate Spectrophotometer. Cells incubated with an equivalent DMSO concentration were considered 100% of viability. The equation “log(inhibitor) vs response—variable slope (four parameters) of the GraphPad Prism software was used to calculate the IC50 (half maximal inhibitory concentration) value.

T98G cells [1] = experiment: MTT cell viability assay in T98G glioblastoma cells; conditions: for IC50: Homo sapiens; for IC50 / percentage of cell viability: T98G cells, MTT; for percentage of cell viability: 40 or 80 μM; for anti-glioblastoma activity (in words): T98G cultures
Description: as §1, §2
To evaluate the standard treatment, T98G cultures were treated with temozolomide (5 to 1400 μM). After 72 h, the MTT assay was used to determined cell viability and the IC50 value was calculated as describe above.

T98G cells [2] = experiment: Temporal susceptibility: MTT viability of dexamethasone-synchronized T98G cells; conditions: for viability at 13.6 µM: Homo sapiens, 24 h, read-out: cell viability
Description: T98G cells were seeded at the density of 3 × 10^3 in a 96-well plate and incubated overnight at 37 °C. Cultured cells were synchronized with dexamethasone (100 nM, 1 h at 37 °C) according to reference and then treated with (3) (13.6 μM) or DMSO at different times post-synchronization for 24 h. After incubation, cell viability was measured by MTT assay as described above. Cells incubated with DMSO were considered as 100% of viability.

[3] = pure compounds, 24 h, read-out: IC50

Row | Compound | IC50 (T98G cells [1]; [3]) | percentage of cell viability (T98G cells [1]; 24 h) | anti-glioblastoma activity (in words) (T98G cells [1]) | further results
1 | C=C1C(=O)OC2C1CCC(C)=C1CCC(=O)OC12C (stereo not shown) [PsiB, psilostachyin B] | 13.9 µM |  |  | 
2 | Cn1nnc2c(C(N)=O)ncn2c1=O [Temozolomide, reference compound] |  |  |  | IC50 (T98G cells [1]; standard treatment, 72 h, read-out: IC50): 844 µM
3 | CC1=C(/C=C/C(=O)O)[C@]2(C)CC[C@@H](C=C2C(=O)O)C1 [compound 1, (1R,5S)-4-((E)-2-carboxyvinyl)-3,5-dimethylbicyclo[3.2.2]nona-3,6-diene-6-carboxylic acid] |  | higher than 50% | weak anti-glioblastoma activity | 
4 | COC(=O)/C=C/C1=C(C)C[C@@H]2C=C(C(=O)OC)[C@@]1(C)CC2 [compound 2, Methyl (1R,5S)-4-((E)-3-methoxy-3-oxoprop-1-en-1-yl)-3,5-dimethylbicyclo[3.2.2]nona-3,6-diene-6-carboxylate] |  | higher than 50% | weak anti-glioblastoma activity | 
5 | C=C1C(=O)O[C@H]2C(=C)[C@]3(CCC(=O)O3)[C@@H](C)CC[C@@H]12 [compound 4, (3aS,6S,7S,8aR)-6-methyl-3,8-dimethyleneoctahydro-5'H-spiro[cyclohepta[b]furan-7,2'-furan]-2,5'(3H)-dione] |  |  | less active | IC50 (T98G cells [1]; 24 h, 10 to 160 µg/mL tested, read-out: concentration needed to reduce 50% of cell viability): > 40 µg/mL
6 | C=C1C(=O)OC2C(=C)C(CCC(=O)OC)C(C)CCC12 (stereo not shown) [compound 5] |  | higher than 50% | weak anti-glioblastoma activity | 
7 | Methyl 3-((3aS,6S,7S,8aR)-6-methyl-3,8-dimethylene-2-oxooctahydro-2H-cyclohepta[b]furan-7-yl)propanoate [compound 11] |  | higher than 50% | weak anti-glioblastoma activity | 

Second part, led by results:

Row | IC50 (T98G cells [1]; [3]) | Compound | percentage of cell viability (T98G cells [1]; 24 h) | anti-glioblastoma activity (in words) (T98G cells [1]) | further results
8 | 17.4 µM | C=C1C(=O)O[C@@H]2[C@H]1CC[C@H](C)[C@]1(CCC(=O)O1)[C@@]2(C)O [PsiA, psilostachyin A] |  |  | selectivity index (HEK 293 cells): Only 3 showed a good selectivity index
9 | 14.2 µM | C=C1C(=O)OC2C1CCC(C)C1CCC(=O)OC12C (stereo not shown) [PsiC, psilostachyin C] |  |  | 
10 | 13.6 µM | C=C1C(=O)O[C@H]2C(=C)[C@@]3(CCC(=O)O3)[C@@H](C)CC[C@@H]12 [compound 3, (3aS,6S,7R,8aR)-6-methyl-3,8-dimethyleneoctahydro-5'H-spiro[cyclohepta[b]furan-7,2'-furan]-2,5'(3H)-dione] |  | most active derivative of the series | selectivity index (HEK 293 cells): good selectivity index; IC50 (HEK 293 cells; Homo sapiens, HEK293, 24 h, HEK 293 cells, 24 h, MTT): ~39 µM; viability at 13.6 µM (T98G cells [2]; T98G cells treated at 18 and 24 h post synchronization): 45 to 50%; viability at 13.6 µM (T98G cells [2]; non-synchronized T98G cells): ~75%; effect of time post synchronization on cell viability (T98G cells [2]; T98G cells, Kruskal Wallis test): significant effect of time on cell viability
